One assay deals with late watergrass. In words: Test Example 1: herbicidal activity, application before weed generation under submerged conditions (Table 16, symbol A). The class given is in vivo, late watergrass (Echinochloa oryzicola). Conditions: amount of applied herbicide 320 g/ha. Put shortly: (§1)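 Emulsion formulation, water-diluted to set dose, was put onto the flooded surface (4 cm depth, alluvial soil) the same day weeds were sown and 2.5-leaf rice transplanted. After 3 weeks at 25-30 °C under glass, each species was rated 0 (≤5% kill) to 5 (≥90% kill).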

In the next assay the test system is Japanese bulrush. In words: Test Example 1: herbicidal activity, application before weed generation under submerged conditions (Table 16, symbol B). The class given is in vivo, Japanese bulrush (Schoenoplectus juncoides). Conditions: amount of applied herbicide 320 g/ha. Summed up: as §1
The subject of assay [1] is barnyard grass. In words: Test Example 3: herbicidal effect by foliage application, Wagner pot (Table 18, symbol H). The class given is in vivo, barnyard grass (Echinochloa crus-galli). Conditions: 320 g/ha. Put shortly: (§2)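 Plants were sown in alluvial soil held under 0.1–0.5 cm standing water and grown 14 days in a greenhouse at 25–30 °C. An emulsifiable formulation, water-diluted to the set dose, was then sprayed onto the foliage, and effects were scored three weeks later using previously defined criteria.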

The test system of a further assay is rice flat sedge. In words: Test Example 3: herbicidal effect by foliage application, Wagner pot (Table 18, symbol E). The class given is in vivo, rice flat sedge (Cyperus iria). Conditions: 320 g/ha. Summed up: as §2
The subject of assay [2] is southern crabgrass. In words: Test Example 4: herbicidal effect by soil treatment (Table 19, symbol F). The class given is in vivo, southern crabgrass (Digitaria ciliaris). Conditions: amount of applied herbicide 320 g/ha. Put shortly: (§3)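 Herbicidal effect was rated 3 weeks after treatment, using the scoring criteria of an earlier test. The compound, formulated as an emulsion and diluted in water to a set herbicide amount, had been sprayed uniformly on soil over freshly sown seeds. Growth took place in a greenhouse at 25° C. to 30° C.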

Assay [3] has as its system green foxtail. In words: Test Example 4: herbicidal effect by soil treatment (Table 19, symbol G). Conditions: amount of applied herbicide 320 g/ha. The class given is in vivo, green foxtail (Setaria viridis). Put shortly: as §3
The next assay relates to Italian ryegrass. In words: Test Example 4: herbicidal effect by soil treatment (Table 19, symbol K). The class given is in vivo, Italian ryegrass (Lolium multiflorum). Conditions: amount of applied herbicide 320 g/ha. Summed up:
as §3

Assay [4] relates to windgrass. In words: Test Example 4: herbicidal effect by soil treatment (Table 19, symbol L). The class given is in vivo, windgrass (Apera spica-venti). The settings on record: amount of applied herbicide 320 g/ha. Summed up:
as §3

Assay [5] concerns velvetleaf. Nature of the assay: Test Example 4: herbicidal effect by soil treatment (Table 19, symbol M). The class given is in vivo, velvetleaf (Abutilon theophrasti). Conditions: amount of applied herbicide 320 g/ha. Summed up:
as §3

Another assay has as its system persian speedwell. Nature of the assay: Test Example 4: herbicidal effect by soil treatment (Table 19, symbol R). The class given is in vivo, Persian speedwell (Veronica persica). The settings on record: amount of applied herbicide 320 g/ha. Put shortly: as §3
Assay [6] concerns southern crabgrass. In words: Test Example 5: herbicidal effect by foliage application, plastic box (Table 20, symbol F). The class given is in vivo, southern crabgrass (Digitaria ciliaris). Conditions: 320 g/ha, foliage application after 14-day growth, evaluated three weeks after application. Summed up:
(§4)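 Foliar spray test: emulsion formulation diluted in water to a set application rate, sprayed onto 14-day-old plants raised in diluvial soil at 25° C to 30° C under glass. Both herbicidal effect and crop effect rated visually three weeks later.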

The test system of assay [7] is green foxtail. In words: Test Example 5: herbicidal effect by foliage application, plastic box (Table 20, symbol G). The class given is in vivo, green foxtail (Setaria viridis). Conditions: 320 g/ha, foliage application after 14-day growth, evaluated three weeks after application. Put shortly: as §4
Assay [8] concerns barnyard grass. In words: Test Example 5: herbicidal effect by foliage application, plastic box (Table 20, symbol H). The class given is in vivo, barnyard grass (Echinochloa crus-galli). Conditions: 320 g/ha, foliage application after 14-day growth, evaluated three weeks after application. Summed up:
as §4

The next assay concerns wild oat. Nature of the assay: Test Example 5: herbicidal effect by foliage application, plastic box (Table 20, symbol I). The class given is in vivo, wild oat (Avena fatua). Conditions: 320 g/ha, foliage application after 14-day growth, evaluated three weeks after application. Put shortly:
as §4

The next assay deals with blackgrass. Nature of the assay: Test Example 5: herbicidal effect by foliage application, plastic box (Table 20, symbol J). Conditions: 320 g/ha, foliage application after 14-day growth, evaluated three weeks after application. The class given is in vivo, blackgrass (Alopecurus myosuroides). Summed up: as §4
In assay [9] the test system is windgrass. Nature of the assay: Test Example 5: herbicidal effect by foliage application, plastic box (Table 20, symbol L). The class given is in vivo, windgrass (Apera spica-venti). Conditions: 320 g/ha, foliage application after 14-day growth, evaluated three weeks after application. Summed up: as §4
Assay [10] deals with velvetleaf. In words: Test Example 5: herbicidal effect by foliage application, plastic box (Table 20, symbol M). The class given is in vivo, velvetleaf (Abutilon theophrasti). Conditions: 320 g/ha, foliage application after 14-day growth, evaluated three weeks after application. Put shortly:
as §4

The next assay concerns redroot pigweed. In words: Test Example 5: herbicidal effect by foliage application, plastic box (Table 20, symbol N). The class given is in vivo, redroot pigweed (Amaranthus retroflexus). Conditions: 320 g/ha, foliage application after 14-day growth, evaluated three weeks after application. Summed up:
as §4

The values below come from US20230085307A1, “PYRIDAZINONE COMPOUND AND HERBICIDE” (NISSAN CHEMICAL CORPORATION, priority 2019, published 2023).

Molecules are shown by their SMILES.

On to `COc1ccc2c(-c3c(OC(=O)C4CCCCC4)c(C)nn(C)c3=O)c(-c3ccccc3OC)sc2c1` [3-156], for which the “Herbicidal effect, A: late watergrass” value with late watergrass is reported as 5 (Herbicidal rate of 90% or more (almost completely withered)). In the assay on Japanese bulrush, the “Herbicidal effect, B: Japanese bulrush” value was 4 (Herbicidal rate of 70% or more and less than 90%). Besides, the “herbicidal effect on barnyard grass (H)” value with barnyard grass [1] is 5 (Herbicidal rate of 90% or more (almost completely withered)). Also, the “herbicidal effect on rice flat sedge (E)” value in the assay with rice flat sedge was 3 (Herbicidal rate of 40% or more and less than 70%). Besides, the “Herbicidal effect by soil treatment, F: southern crabgrass” value (“Herbicidal effect by soil treatment, F” below) in the assay on southern crabgrass [2] is reported as 0 (Herbicidal rate of 5% or less (almost no effect)). For the same compound, the “Herbicidal effect by soil treatment, G: green foxtail” value in the assay on green foxtail [3] was 0 (Herbicidal rate of 5% or less (almost no effect)). For the same compound, the “Herbicidal effect by soil treatment, K: Italian ryegrass” value (from here on “Herbicidal effect by soil treatment, K”) in the assay with Italian ryegrass was 0 (Herbicidal rate of 5% or less (almost no effect)). In addition, in the assay with windgrass [4], the “Herbicidal effect by soil treatment, L: windgrass” value is 0 (Herbicidal rate of 5% or less (almost no effect)). Besides, in the assay on velvetleaf [5], the “Herbicidal effect by soil treatment, M: velvetleaf” value was 0 (Herbicidal rate of 5% or less (almost no effect)). The “Herbicidal effect by soil treatment, R: persian speedwell” value (shortened to “Herbicidal effect by soil treatment, R”) in the assay on persian speedwell was 4 (Herbicidal rate of 70% or more and less than 90%). Moreover, in the assay with southern crabgrass [6], the “herbicidal effect on F: southern crabgrass (evaluation grade 0-5)” value (from here on “herbicidal effect on F”) is given as 5 (Herbicidal rate of 90% or more (almost completely withered)). Moreover, the “herbicidal effect on G: green foxtail (evaluation grade 0-5)” value (“herbicidal effect on G: green foxtail” for short) with green foxtail [7] was 5 (Herbicidal rate of 90% or more (almost completely withered)). In addition, the “herbicidal effect on H: barnyard grass (evaluation grade 0-5)” value (“herbicidal effect on H: barnyard grass” below) with barnyard grass [8] was 5 (Herbicidal rate of 90% or more (almost completely withered)). The “herbicidal effect on I: wild oat (evaluation grade 0-5)” value (“herbicidal effect on I: wild oat” below) in the assay on wild oat is 4 (Herbicidal rate of 70% or more and less than 90%). Further, the “herbicidal effect on J: blackgrass (evaluation grade 0-5)” value (from here on “herbicidal effect on J: blackgrass”) in the assay with blackgrass was 4 (Herbicidal rate of 70% or more and less than 90%). For the same compound, the “herbicidal effect on L: windgrass (evaluation grade 0-5)” value (“herbicidal effect on L: windgrass” for short) in the assay with windgrass [9] was 5 (Herbicidal rate of 90% or more (almost completely withered)). The “herbicidal effect on M: velvetleaf (evaluation grade 0-5)” value (“herbicidal effect on M: velvetleaf” below) with velvetleaf [10] is 5 (Herbicidal rate of 90% or more (almost completely withered)). The “herbicidal effect on N: redroot pigweed (evaluation grade 0-5)” value (“herbicidal effect on N: redroot pigweed” below) in the assay on redroot pigweed was 5 (Herbicidal rate of 90% or more (almost completely withered)).

On to `COc1ccccc1-c1sc2cc(SC)ccc2c1-c1c(O)c(C)nn(C)c1=O` [3-163], for which the “Herbicidal effect, A: late watergrass” value in the assay on late watergrass is 3 (Herbicidal rate of 40% or more and less than 70%). In addition, the “Herbicidal effect, B: Japanese bulrush” value with Japanese bulrush was 3 (Herbicidal rate of 40% or more and less than 70%). In addition, the “herbicidal effect on barnyard grass (H)” value with barnyard grass [1] is given as 5 (Herbicidal rate of 90% or more (almost completely withered)). For the same compound, in the assay with rice flat sedge, the “herbicidal effect on rice flat sedge (E)” value is 3 (Herbicidal rate of 40% or more and less than 70%). For the same compound, the “Herbicidal effect by soil treatment, F” value with southern crabgrass [2] was 4 (Herbicidal rate of 70% or more and less than 90%). For the same compound, in the assay with green foxtail [3], the “Herbicidal effect by soil treatment, G: green foxtail” value is 3 (Herbicidal rate of 40% or more and less than 70%). Moreover, the “Herbicidal effect by soil treatment, K” value with Italian ryegrass was 3 (Herbicidal rate of 40% or more and less than 70%). In the assay on windgrass [4], the “Herbicidal effect by soil treatment, L: windgrass” value is 3 (Herbicidal rate of 40% or more and less than 70%). In the assay with velvetleaf [5], the “Herbicidal effect by soil treatment, M: velvetleaf” value was 1 (Herbicidal rate of 5% or more and less than 20%). In addition, the “Herbicidal effect by soil treatment, R” value in the assay with persian speedwell was 3 (Herbicidal rate of 40% or more and less than 70%). In the assay on southern crabgrass [6], the “herbicidal effect on F” value was 5 (Herbicidal rate of 90% or more (almost completely withered)). Moreover, the “herbicidal effect on G: green foxtail” value in the assay on green foxtail [7] is listed as 5 (Herbicidal rate of 90% or more (almost completely withered)). The “herbicidal effect on H: barnyard grass” value with barnyard grass [8] was 5 (Herbicidal rate of 90% or more (almost completely withered)). Also, the “herbicidal effect on I: wild oat” value in the assay on wild oat is given as 5 (Herbicidal rate of 90% or more (almost completely withered)). Further, the “herbicidal effect on J: blackgrass” value with blackgrass is given as 5 (Herbicidal rate of 90% or more (almost completely withered)). Also, the “herbicidal effect on L: windgrass” value with windgrass [9] is 5 (Herbicidal rate of 90% or more (almost completely withered)). Further, the “herbicidal effect on M: velvetleaf” value in the assay on velvetleaf [10] was 5 (Herbicidal rate of 90% or more (almost completely withered)). The “herbicidal effect on N: redroot pigweed” value with redroot pigweed is 5 (Herbicidal rate of 90% or more (almost completely withered)).

For `CCCOc1ccc(-c2sc3c(F)cccc3c2-c2c(OC(=O)CCC)c(C)nn(C)c2=O)cc1` [4-010], the “Herbicidal effect, A: late watergrass” value with late watergrass was 3 (Herbicidal rate of 40% or more and less than 70%). In addition, in the assay with Japanese bulrush, the “Herbicidal effect, B: Japanese bulrush” value is listed as 0 (Herbicidal rate of 5% or less (almost no effect)). In addition, the “herbicidal effect on barnyard grass (H)” value in the assay on barnyard grass [1] was 5 (Herbicidal rate of 90% or more (almost completely withered)). Also, in the assay on rice flat sedge, the “herbicidal effect on rice flat sedge (E)” value is 5 (Herbicidal rate of 90% or more (almost completely withered)). Also, the “Herbicidal effect by soil treatment, F” value in the assay with southern crabgrass [2] is listed as 0 (Herbicidal rate of 5% or less (almost no effect)). Also, in the assay on green foxtail [3], the “Herbicidal effect by soil treatment, G: green foxtail” value is on record as 0 (Herbicidal rate of 5% or less (almost no effect)). For the same compound, in the assay with Italian ryegrass, the “Herbicidal effect by soil treatment, K” value is 2 (Herbicidal rate of 20% or more and less than 40%). For the same compound, in the assay with windgrass [4], the “Herbicidal effect by soil treatment, L: windgrass” value is 0 (Herbicidal rate of 5% or less (almost no effect)). For the same compound, the “Herbicidal effect by soil treatment, M: velvetleaf” value with velvetleaf [5] is 0 (Herbicidal rate of 5% or less (almost no effect)). In addition, the “Herbicidal effect by soil treatment, R” value with persian speedwell was 3 (Herbicidal rate of 40% or more and less than 70%). Also, the “herbicidal effect on F” value in the assay on southern crabgrass [6] is 0 (Herbicidal rate of 5% or less (almost no effect)). In the assay with green foxtail [7], the “herbicidal effect on G: green foxtail” value was 3 (Herbicidal rate of 40% or more and less than 70%). In the assay with barnyard grass [8], the “herbicidal effect on H: barnyard grass” value is on record as 5 (Herbicidal rate of 90% or more (almost completely withered)). Also, in the assay on wild oat, the “herbicidal effect on I: wild oat” value is 0 (Herbicidal rate of 5% or less (almost no effect)). Besides, the “herbicidal effect on J: blackgrass” value in the assay on blackgrass is 4 (Herbicidal rate of 70% or more and less than 90%). Further, the “herbicidal effect on L: windgrass” value in the assay with windgrass [9] is recorded as 0 (Herbicidal rate of 5% or less (almost no effect)). For the same compound, the “herbicidal effect on M: velvetleaf” value with velvetleaf [10] was 3 (Herbicidal rate of 40% or more and less than 70%). In addition, in the assay on redroot pigweed, the “herbicidal effect on N: redroot pigweed” value is given as 5 (Herbicidal rate of 90% or more (almost completely withered)).
